# Assay results: patent US20210292710A1, “METHOD FOR ENHANCING IMMUNE FUNCTION OF IMMUNE CELL AND IMMUNE CELL LINE PRODUCED USING THE SAME” (INDUSTRY-ACADEMIC COOPERATION FOUNDATION, YONSEI UNIVERSITY, priority 2020, published 2021)
# System: GLUT1
# Test: GLUT1 expression in T cell based on type of PI3K inhibitor
# From the text: More specifically, referring to (a) of FIG. 12, the results of GLUT1 expression according to the type of PI3K inhibitor in the helper T cell are shown. In this connection, the PI3K inhibitor may include BKM 120 that may inhibit all subtypes, CAL-101 that may inhibit only p110δ, IPI-145 capable of inhibiting p110γ and P110δ, BYLT719 capable of inhibiting only p110α, and TGX-211 capable of inhibiting only p110β.
# Referring to (b) of FIG. 12, the results of GLUT1 expression according to the type of PI3K inhibitor in cytotoxic T cells are shown.
structure (smiles),measurement,setting,value
"CC[C@H](Nc1ncnc2[nH]cnc12)c1nc2cccc(F)c2c(=O)n1-c1ccccc1 [CAL-101, idelalisib]",GLUT1 expression level versus BYLT719 and TGX-211 inhibitors,cytotoxic T cells,higher GLUT1 expression levels
same,GLUT1 expression level versus BYLT719 and TGX-211 inhibitors,helper T cell,higher GLUT1 expression levels
